Source: ChEMBL document CHEMBL4316582, “Nitro-Group-Containing Drugs” (J Med Chem, 2019)

Legend:
[1] = tested on: NCI-H460; assay: Antiproliferative activity against human NCI-H460 cells in presence of O2; assay type: functional, cell-based
[2] = tested on: NCI-H460; assay: Antiproliferative activity against human NCI-H460 cells in presence of N2; assay type: functional, cell-based
[3] = tested on: NCI-H460; assay: Ratio of IC50 for antiproliferative activity against human NCI-H460 cells in presence of O2 to antiproliferative activity against human NCI-H460 cells in presence of N2; assay type: functional
[4] = tested on: SK-OV-3; assay: Cytotoxicity against human SKOV3 cells; assay type: functional, cell-based
[5] = tested on: HT-29; assay: Cytotoxicity against human HT-29 cells; assay type: functional, cell-based
[6] = tested on: NCI-H460; assay: Antiproliferative activity against human NCI-H460 cells; assay type: functional, cell-based
[7] = biological target: T1, Quinone oxidoreductase (Homo sapiens, UniProt Q08257); assay: Inhibition of human Quinone oxidoreductase
T1 sequence (Q08257 whole entry): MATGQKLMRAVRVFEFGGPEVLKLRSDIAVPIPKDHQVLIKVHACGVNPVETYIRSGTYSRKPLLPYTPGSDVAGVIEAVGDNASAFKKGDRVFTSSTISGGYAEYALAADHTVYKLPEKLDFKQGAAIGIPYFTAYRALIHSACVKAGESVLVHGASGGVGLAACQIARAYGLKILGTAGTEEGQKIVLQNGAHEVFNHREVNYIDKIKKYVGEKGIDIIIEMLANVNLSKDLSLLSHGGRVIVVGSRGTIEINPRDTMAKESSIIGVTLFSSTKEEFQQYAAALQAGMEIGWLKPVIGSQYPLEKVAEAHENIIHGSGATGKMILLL

[8] = biological target: Epidermal growth factor receptor (Homo sapiens, UniProt P00533); assay: Inhibition of erbB1 (unknown origin) using FRET-capable peptide substrate by FRET assay
Epidermal growth factor receptor, sequence (P00533 whole entry): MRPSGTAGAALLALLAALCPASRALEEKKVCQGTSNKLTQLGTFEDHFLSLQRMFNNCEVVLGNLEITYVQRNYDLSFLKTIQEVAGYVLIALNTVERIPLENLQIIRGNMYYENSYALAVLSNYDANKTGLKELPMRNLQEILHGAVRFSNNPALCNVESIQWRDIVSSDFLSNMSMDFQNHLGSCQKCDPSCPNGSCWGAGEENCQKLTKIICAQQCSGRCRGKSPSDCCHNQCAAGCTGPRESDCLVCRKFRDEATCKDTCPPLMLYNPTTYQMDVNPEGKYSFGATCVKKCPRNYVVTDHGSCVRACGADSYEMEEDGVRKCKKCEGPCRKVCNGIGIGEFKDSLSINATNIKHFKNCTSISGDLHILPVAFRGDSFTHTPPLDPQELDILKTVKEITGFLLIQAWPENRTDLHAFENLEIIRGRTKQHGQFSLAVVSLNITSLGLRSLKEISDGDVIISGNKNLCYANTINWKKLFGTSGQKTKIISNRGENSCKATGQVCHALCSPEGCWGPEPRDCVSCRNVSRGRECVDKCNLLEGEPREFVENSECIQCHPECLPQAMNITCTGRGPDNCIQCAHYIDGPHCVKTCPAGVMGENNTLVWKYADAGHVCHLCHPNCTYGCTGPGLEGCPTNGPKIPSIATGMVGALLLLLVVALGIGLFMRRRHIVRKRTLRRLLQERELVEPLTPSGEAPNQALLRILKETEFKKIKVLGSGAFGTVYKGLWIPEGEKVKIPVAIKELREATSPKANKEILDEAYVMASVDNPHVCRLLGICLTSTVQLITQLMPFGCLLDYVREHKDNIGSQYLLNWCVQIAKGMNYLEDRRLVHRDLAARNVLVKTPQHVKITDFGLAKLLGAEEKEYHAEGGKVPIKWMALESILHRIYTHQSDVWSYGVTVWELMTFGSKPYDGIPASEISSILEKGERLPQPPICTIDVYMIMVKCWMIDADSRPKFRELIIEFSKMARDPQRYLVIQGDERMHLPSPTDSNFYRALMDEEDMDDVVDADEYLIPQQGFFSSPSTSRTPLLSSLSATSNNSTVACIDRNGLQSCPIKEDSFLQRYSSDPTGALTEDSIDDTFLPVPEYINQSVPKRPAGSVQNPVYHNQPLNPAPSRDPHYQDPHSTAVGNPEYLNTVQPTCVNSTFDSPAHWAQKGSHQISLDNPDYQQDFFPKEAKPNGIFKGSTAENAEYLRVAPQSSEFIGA

[9] = tested on: NCI-H460; assay: Cytotoxicity against human NCI-H460 cells assessed as reduction in cell viability after 2 hrs by Alamar blue assay; assay type: functional, cell-based; details: NCI-H460, 2 h
[10] = Cytotoxicity against human MiaPaCa cells assessed as reduction in cell viability after 2 hrs by Alamar blue assay; assay type: functional, cell-based; details: MIA PaCa-2, 2 h
[11] = tested on: HT-29; assay: Cytotoxicity against human HT-29 cells assessed as reduction in cell viability after 2 hrs by Alamar blue assay; assay type: functional, cell-based; details: HT-29, 2 h
[12] = biological target: T2, Oxygen-insensitive NAD(P)H nitroreductase (Escherichia coli K-12, UniProt P38489); assay: Susbtrate activity at Escherichia coli nitroreductase assessed as half life; assay type: ADME
T2 sequence (P38489 whole entry): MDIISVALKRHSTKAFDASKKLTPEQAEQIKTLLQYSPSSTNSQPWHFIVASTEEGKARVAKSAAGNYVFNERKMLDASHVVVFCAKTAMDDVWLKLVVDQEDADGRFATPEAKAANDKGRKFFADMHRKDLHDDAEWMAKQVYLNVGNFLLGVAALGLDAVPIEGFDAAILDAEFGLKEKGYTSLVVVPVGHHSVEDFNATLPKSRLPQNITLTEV

[13] = biological target: T2, Oxygen-insensitive NAD(P)H nitroreductase; assay: Inhibition of Escherichia coli nitroreductase expressed in human HCT116 cells; assay type: cell-based
[14] = Inhibition of Escherichia coli nitroreductase F179 mutant
[15] = tested on: NCI-H460; assay: Cytotoxicity against human NCI-H460 cells assessed as reduction in cell viability after 2 hrs under hypoxic conditions by Alamar blue assay; assay type: functional, cell-based; details: NCI-H460, 2 h
[16] = tested on: NCI-H460; assay: Cytotoxicity against human NCI-H460 cells assessed as reduction in cell viability after 2 hrs under normoxic conditions by Alamar blue assay; assay type: functional, cell-based; details: NCI-H460, 2 h
[17] = tested on: Hep 3B2; assay: Cytotoxicity against human Hep3B cells after 24 hrs under hypoxic condition by MTS assay; assay type: functional, cell-based
[18] = tested on: Hep 3B2; assay: Cytotoxicity against human Hep3B cells after 24 hrs by MTS assay; assay type: functional, cell-based

Structure (SMILES): NC(=O)c1ccc([N+](=O)[O-])c(N2CC2)n1
- IC50 [1]: 61000 nM
- IC50 [2]: 1700 nM
- Ratio IC50 [3]: 35.9

Structure (SMILES): NP(=O)(OCc1ccc([N+](=O)[O-])cc1)N(CCCl)CCCl (centres undefined)
- IC50 [4]: 1100 nM

Structure (SMILES): CN(C)CCOc1ccc2[nH]c(C(=O)N3CC(CCl)c4c3cc([N+](=O)[O-])c3c(C#N)cccc43)cc2c1 (centres undefined)
- IC50 [5]: 120 nM
- IC50 [4]: 170 nM

Structure (SMILES): Cn1c(COP(=O)(N(CCCl)CCCl)N(CCCl)CCCl)ccc1[N+](=O)[O-]
- IC50 [6]: > 1000 nM
- IC50 [1]: 850 nM
- IC50 [2]: 7 nM

Structure (SMILES): CC(OP(N)(=O)N(CCCl)CCCl)c1ccc([N+](=O)[O-])cc1 (centres undefined)
- IC50 [4]: 1800 nM

Structure (SMILES): O=[N+]([O-])c1ccc(C2CCOP(=O)(N(CCCl)CCCl)N2)cc1 (centres undefined)
- IC50 [7]: 48000 nM

Structure (SMILES): Cn1cc([N+](=O)[O-])nc1C[N+](C)(C)C/C=C/C(=O)Nc1ccc2ncnc(Nc3cccc(Br)c3)c2c1
- IC50 [8]: 0.22 to 0.56 nM

Structure (SMILES): CC#Cc1c(OC)ccc2c(C(=O)c3cc(OC)c(OC)c(OC)c3)nn(C[N+](C)(C)Cc3c(-c4ccc(F)cc4)nc([N+](=O)[O-])n3C)c12
- IC50 [9]: 31 nM
- IC50 [10]: 25 nM
- IC50 [11]: 25 nM

Structure (SMILES): C=Cc1nc([N+](=O)[O-])n(C)c1C[N+](C)(C)Cn1nc(C(=O)c2cc(OC)c(OC)c(OC)c2)c2ccc(OC)c(C#CC)c21
- IC50 [9]: 48 nM
- IC50 [10]: 20 nM
- IC50 [11]: 7 nM

Structure (SMILES): O=[N+]([O-])c1ccc2c(c1)NP(=O)(N(CCCl)CCCl)NC2 (centres undefined)
- half-life [12]: 7.8 min

Structure (SMILES): O=[N+]([O-])c1ccc2c(c1)OP(=O)(N(CCCl)CCCl)NC2 (centres undefined)
- IC50 [13]: 48000 nM
- IC50 [7]: 48000 nM
- IC50 [14]: 61000 nM
- half-life [12]: 11 min

Structure (SMILES): CC(OP(=O)(NCCBr)NCCBr)c1ccc([N+](=O)[O-])s1 (centres undefined)
- IC50 [6]: 500 nM
- IC50 [1]: 200 nM
- IC50 [2]: 30 nM

Structure (SMILES): COc1cccc2c1C(=O)c1c(O)c3c(c(O)c1C2=O)C[C@@](O)(C(C)=O)C[C@@H]3O[C@H]1C[C@H](NCCCCn2ccnc2[N+](=O)[O-])[C@H](O)[C@H](C)O1
- IC50 [15]: 4 nM
- IC50 [16]: 5700 nM

Structure (SMILES): COC(=O)c1cc(COP(N)(=O)N(CCCl)CCCl)ccc1[N+](=O)[O-] (centres undefined)
- IC50 [4]: 2100 nM

Structure (SMILES): Cn1c(COP(=O)(NCCBr)NCCBr)cnc1[N+](=O)[O-] [EVOFOSFAMIDE]
- IC50 [6]: > 100000 nM
- IC50 [1]: 25000 nM
- IC50 [2]: 2000 nM

Structure (SMILES): COc1ccc(C[C@@H](C)[C@@H](C)Cc2ccc(OCCOCCOCCOCCn3ccnc3[N+](=O)[O-])c(OC)c2)cc1OC
- IC50 [17]: 13400 nM
- IC50 [18]: 13400 nM

Structure (SMILES): NC(=O)c1cc([N+](=O)[O-])cnc1N1CC1
- IC50 [1]: 198000 nM
- IC50 [2]: 9300 nM
- Ratio IC50 [3]: 21.3

Structure (SMILES): COc1cc(COP(N)(=O)N(CCCl)CCCl)ccc1[N+](=O)[O-] (centres undefined)
- IC50 [4]: 3100 nM

Structure (SMILES): COc1cc([N+](=O)[O-])ccc1COP(N)(=O)N(CCCl)CCCl (centres undefined)
- IC50 [4]: 1800 nM

Structure (SMILES): NC(=O)c1cnc(N2CC2)c([N+](=O)[O-])c1
- IC50 [1]: 143000 nM
- IC50 [2]: 2300 nM
- Ratio IC50 [3]: 62

Structure (SMILES): CC#Cc1c(OC)ccc2c(C(=O)c3cc(OC)c(OC)c(OC)c3)nn(Cn3cc[n+](Cc4ccc([N+](=O)[O-])o4)c3)c12
- IC50 [9]: 14 nM
- IC50 [11]: 1 nM

Structure (SMILES): CC#Cc1c(OC)ccc2c(C(=O)c3cc(OC)c(OC)c(OC)c3)nn(C[N+](C)(C)Cc3c(-c4ccccc4)nc([N+](=O)[O-])n3C)c12
- IC50 [9]: 12 nM
- IC50 [10]: 16 nM
- IC50 [11]: 6 nM

Structure (SMILES): N#Cc1cc(COP(=O)(NCCBr)NCCBr)sc1[N+](=O)[O-]
- IC50 [6]: 20 nM
- IC50 [1]: 10 nM
- IC50 [2]: 6 nM

Structure (SMILES): CC#Cc1c(OC)ccc2c(C(=O)c3cc(OC)c(OC)c(OC)c3)nn(C[N+](C)(C)Cc3ccc([N+](=O)[O-])o3)c12
- IC50 [9]: 45 nM
- IC50 [11]: 12 nM

Structure (SMILES): COc1cc2cc(C(=O)N3CC(CCl)c4c3cc([N+](=O)[O-])c3c(C(C)=O)cccc43)[nH]c2c(OC)c1OC (centres undefined)
- IC50 [5]: 680 nM
- IC50 [4]: 500 nM
